Laboratory results: PubChem BioAssay (NCI)
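Where inhibition never reached the appropriate level, the endpoint shown equals the highest concentration tested. Otherwise, values were interpolated linearly from a five-concentration, 48-hour dose response in 96-well plates. The concentration for 50% growth inhibition is given as GI50. The concentration for full growth arrest is given as TGI.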

Columns and labels:
Assay in all cases: inhibition of tumour cell growth, NCI panel, 48 h
[1] = test system: COLO 205 colon
[2] = test system: HCC-2998 colon
[3] = test system: HCT-116 colon
[4] = test system: HL-60(TB) leukemia
[5] = test system: IGROV1 ovarian
[6] = test system: PC-3 prostate
[7] = test system: T-47D breast
[8] = test system: UACC-62 melanoma
[9] = test system: SF-539 CNS
[10] = test system: SR leukemia

Compound	TGI [1]	GI50 [2]	TGI [2]	GI50 [3]	TGI [3]	TGI [4]	GI50 [5]	TGI [5]	GI50 [6]	TGI [6]	GI50 [7]	TGI [7]	GI50 [8]	TGI [8]	TGI [9]	TGI [10]
COc1cc(O)c2c(=O)c(OC)c(-c3ccc(OC)c(OC)c3)oc2c1	> 100 µM	94.4 µM	> 100 µM	68.7 µM	> 100 µM	> 100 µM	> 100 µM	> 100 µM	> 100 µM	> 100 µM	31.1 µM	> 100 µM	> 100 µM	> 100 µM		
COc1cccc(C2c3cc4c(cc3OC3COC(=O)C32)OCO4)c1OC (stereo unspecified)	> 100 µM		> 100 µM		> 100 µM	> 100 µM		> 100 µM		> 100 µM				> 100 µM	> 100 µM	
O=C1CCCC/C1=C\c1ccc(Cl)c(Cl)c1	96.6 µM		42.7 µM		31.9 µM	48.9 µM		61.7 µM						63.6 µM	32.5 µM	
CCOC(=O)C1CCCCN1C(=O)Cc1c[nH]c2ccccc12 (stereo unspecified)	> 100 µM		> 100 µM		> 100 µM	58.6 µM		> 100 µM		> 100 µM		> 100 µM		> 100 µM	> 100 µM	
O=C(c1ccco1)N(C(=O)N1CCN(c2ccccc2)CC1)S(=O)(=O)c1ccccc1	82.4 µM		> 100 µM		44 µM	45.1 µM				> 100 µM		61 µM		82 µM	41.1 µM	51.4 µM
CN1CCN(P2(=S)Oc3ccc4ccccc4c3-c3c(ccc4ccccc34)O2)CC1	28.8 µM		41.8 µM		> 100 µM	39.9 µM		> 100 µM						> 100 µM	42.6 µM	
COC(=O)Cc1c(-c2c(CC(=O)OC)c3ccccc3n2C2OC(COC(C)=O)C(OC(C)=O)C(OC(C)=O)C2OC(C)=O)[nH]c2ccccc12 (stereo unspecified)	> 100 µM		> 100 µM		> 100 µM			> 100 µM		> 100 µM				> 100 µM		> 100 µM
Nc1nc2c(C(=O)O)c3ccc([N+](=O)[O-])cc3c(=O)n2c2ccccc12	> 100 µM		> 100 µM		42.8 µM	> 100 µM		86.6 µM		74.9 µM		68.9 µM		> 100 µM		> 100 µM
c1ccc(N=C2c3ccsc3C(=Nc3ccccc3)c3ccsc32)cc1	6.01 µM		7.25 µM		3.89 µM	4.2 µM		4 µM		9.44 µM		4.06 µM		3.9 µM	3.83 µM	
CCCCCCCCCCCC[N+](CCCCCCCCCCCC)=C1SCCS1	20.4 µM		22.4 µM		10.9 µM	12.1 µM		23.4 µM						22.9 µM	25.5 µM	15.2 µM
CCOC(=O)c1c[nH]c2ccc3c(c2c1=O)S(=O)(=O)CC3 (tested in a mixture with another compound)	> 100 µM		> 100 µM		> 100 µM	> 100 µM		> 100 µM						> 100 µM	> 100 µM	
CC1(C)CC(=O)c2c(nc3c4c([nH]c(-c5ccc(Br)cc5)c24)CC(C)(C)C3)C1	54.2 µM		> 100 µM		> 100 µM	> 100 µM				> 100 µM		> 100 µM		> 100 µM	> 100 µM	59.1 µM
Cc1cc(NS(=O)(=O)c2ccc(NC(=O)c3cccc4c(Nc5ccc(S(N)(=O)=O)cc5)c5ccccc5nc34)cc2)no1			> 100 µM		> 100 µM	> 100 µM								> 100 µM	> 100 µM	> 100 µM
COc1cccc(/N=N/C(=NNC(=O)c2ccc(C)cc2)c2ccc(N(C)C)cc2)c1	> 100 µM		> 100 µM		> 100 µM	> 100 µM		> 100 µM		> 100 µM		> 100 µM			> 100 µM	> 100 µM
O=C1NC2CCCCCC2C12CCCCC2 (stereo unspecified)			> 100 µM		> 100 µM	> 100 µM		> 100 µM						> 100 µM	> 100 µM	> 100 µM
COc1ccc(C2=NOC(N)(c3ccc(OC)cc3)C2)cc1 (stereo unspecified)	> 100 µM		> 100 µM		> 100 µM	> 100 µM		> 100 µM		> 100 µM				> 100 µM	> 100 µM	> 100 µM
CC[C@@]1(O)C(=O)OCc2c1cc1n(c2=O)Cc2c-1nc1ccccc1c2/C=N\NC(=O)C(N)CCSC (stereo partly specified)	18.5 µM		5.26 µM		1.58 µM	2.66 µM		5.63 µM		> 100 µM				< 0.043 µM		< 0.0397 µM
Nc1ccc(Nc2cc(=O)[nH]c(=O)[nH]2)cc1Cl	> 100 µM		> 100 µM		> 100 µM	> 100 µM				> 100 µM		> 100 µM		> 100 µM	> 100 µM	> 100 µM
C=CCOc1ccc(C2C(C(=O)OC)C(=O)CC(O)(c3ccccc3)C2C(=O)OC)cc1OC (stereo unspecified)	> 100 µM		> 100 µM		49.8 µM	> 100 µM		> 100 µM		> 100 µM		46.9 µM		> 100 µM		> 100 µM
COC(=O)C1CCC(=O)N1C(c1ccc2c(c1)OCO2)c1cc(OC)c(OC)c(OC)c1 (stereo unspecified)	> 100 µM		> 100 µM		> 100 µM	> 100 µM		> 100 µM		> 100 µM				> 100 µM	> 100 µM	> 100 µM
CC(C)(CCC(C)(C)N1OC1c1ccccc1)N1OC1c1ccccc1 (stereo unspecified)	> 100 µM		> 100 µM		> 100 µM	44.3 µM				> 100 µM		> 100 µM		> 100 µM	> 100 µM	40.3 µM
O=C(O)c1cc(CCc2cc(O)ccc2O)ccc1O	> 100 µM				> 100 µM	77.7 µM		> 100 µM		> 100 µM		> 100 µM		> 100 µM	> 100 µM	> 100 µM
CCN(CC)c1nnc(CCCCCCCCc2nnc(N(CC)CC)o2)o1	> 100 µM				> 100 µM	> 100 µM		> 100 µM		> 100 µM					> 100 µM	
NC(Cc1ccc(S(=O)(=O)O)cc1)C(=O)NC(Cc1ccc(S(=O)(=O)O)cc1)C(=O)NC(Cc1ccc(S(=O)(=O)O)cc1)C(=O)NC(Cc1ccc(S(=O)(=O)O)cc1)C(=O)O (stereo unspecified)	> 100 µM		> 100 µM		> 100 µM			> 100 µM		> 100 µM		> 100 µM		> 100 µM	> 100 µM	
